What is called IC50 is the point on the concentration scale where inhibition reaches its midpoint. A higher IC50 goes with weaker potency.

The target of assay [1] is human histamine receptor type 1 (Homo sapiens, UniProt P35367). Put plainly: In vitro histamine receptor cell-based assay, H1R antagonist (aequorin bioluminescence). As to conditions: CHO-K1 cells expressing human H1 receptor and aequorin; histamine at EC80. The source says:
(§1) In Vitro Histamine Receptor Cell-Based Assays
(§2) The assays are based on an aequorin dependent bioluminescence signal, generated by receptor signaling through Gq/11 or a similarly acting G protein and a resulting transient calcium flux. Doubly-transfected, stable CHO-K1 cell lines expressing human histamine receptor type 1 or type 4, mitochondrion-targeted aequorin, and (histamine type 4 receptor only) human G protein Gα16 are obtained from Perkin-Elmer (Histamine H1 cell line, catalog ES-390-A; Histamine H4 cell line, catalog ES-393-A). Cells are maintained on conventional culture plasticware in F12 (Ham's) growth medium containing 10% (vol./vol.) fetal bovine serum, penicillin (100 IU/ml), streptomycin (0.1 mg/ml), zeocin (0.25 mg/ml) and geneticin (0.40 mg/ml), as per the manufacturer's instructions (all components from Invitrogen, Inc.). One day prior to assay, the growth medium is replaced with the same, excluding zeocin and geneticin.
(§3) To prepare cells for a histamine receptor assay, growth medium is aspirated, and the cells are rinsed with calcium-free, magnesium-free phosphate-buffered saline. The rinse is aspirated and replaced with Versene (Invitrogen, Inc.) and the cells incubated for two to three minutes at 37° C., followed by tapping the plate to fully dislodge cells. Assay medium (DMEM:F12 [50:50], phenol-red free, containing 1 mg/ml protease-free bovine serum albumin) is added to collect the cells, which are then transferred to a conical tube for centrifugation. The cell pellet is re-suspended in assay medium, and the cell density is determined by counting with a hemacytometer. The cells are then centrifuged again and re-suspended in assay medium to a final density of 5×10^6 cells/ml. Coelenterazine-h dye (500 μM in ethanol) is then added to a final concentration of 5 μM, and mixed immediately. The conical tube containing the cells is then wrapped with foil to protect the light sensitive dye. The cells are incubated for four hours further at normal room temperature (approximately 21° C.) with vertical rotation to keep them in suspension.
(§4) Just before assay, the dye-loaded cells are diluted to 0.75×10^6 cells/ml (H1 receptor) or 1.5×10^6 cells/ml (H4 receptor) with additional assay medium. Cells are dispensed to 1536 well microtiter plates at 3 μl/well. To assay receptor antagonist activity, […] of 100× concentration test compounds in dimethyl sulfoxide (DMSO) are dispensed to the wells, one compound per well, by passive pin transfer, and the plates are incubated for 15 minutes at room temperature. Assay plates are then transferred to a Lumilux (Perkin-Elmer) bioluminescence plate reader equipped with an automated 1536 well disposable tip pipette. The pipette then dispenses 3 μl/well of agonist (histamine, at twice the final concentration, where final concentration is a previously determined EC80 for response), with concurrent bioluminescence detection.
(§5) CCD imaging capture on the Lumilux instrument includes a 5 second baseline read prior to agonist addition, generally with a 40 second complete read per plate. A decrease in bioluminescence signal (measured either as area-under-the-curve, or maximum signal amplitude minus minimum signal amplitude) correlates with receptor antagonism. Negative control activity is measured with DMSO lacking any test compound. For receptor antagonist assays, positive control activity is measured with diphenhydramine (2-Diphenylmethoxy-N,N-dimethylethylamine, 10 μM final concentration, H1 receptor) or JNJ7777120 (1-[(5-Chloro-1H-indol-2-yl)carbonyl]-4-methyl-piperazine, 10 μM final concentration, H4 receptor). For receptor agonist assays, positive activity is measured with histamine (10 μM final concentration). Efficacy is measured as a percentage of positive control activity.

In assay [2] the target is human histamine receptor type 4 (Homo sapiens, UniProt Q9H3N8). Put plainly: In vitro histamine receptor cell-based assay, H4R antagonist (aequorin bioluminescence). As to conditions: CHO-K1 cells expressing human H4 receptor, aequorin and Gα16; histamine at EC80.
Excerpt: as §1, §2, §3, §4, §5

human histamine receptor type 4, sequence (Q9H3N8 whole entry): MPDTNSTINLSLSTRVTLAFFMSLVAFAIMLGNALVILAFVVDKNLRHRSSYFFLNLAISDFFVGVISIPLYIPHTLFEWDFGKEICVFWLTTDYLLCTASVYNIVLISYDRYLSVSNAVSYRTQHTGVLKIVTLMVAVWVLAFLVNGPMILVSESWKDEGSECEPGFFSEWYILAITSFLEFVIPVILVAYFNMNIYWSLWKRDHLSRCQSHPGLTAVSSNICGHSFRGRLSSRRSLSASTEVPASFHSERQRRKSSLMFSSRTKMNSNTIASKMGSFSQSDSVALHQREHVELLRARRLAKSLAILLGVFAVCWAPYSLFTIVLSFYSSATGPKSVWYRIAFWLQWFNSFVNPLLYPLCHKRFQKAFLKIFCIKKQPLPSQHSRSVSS
human histamine receptor type 1, sequence (P35367 whole entry): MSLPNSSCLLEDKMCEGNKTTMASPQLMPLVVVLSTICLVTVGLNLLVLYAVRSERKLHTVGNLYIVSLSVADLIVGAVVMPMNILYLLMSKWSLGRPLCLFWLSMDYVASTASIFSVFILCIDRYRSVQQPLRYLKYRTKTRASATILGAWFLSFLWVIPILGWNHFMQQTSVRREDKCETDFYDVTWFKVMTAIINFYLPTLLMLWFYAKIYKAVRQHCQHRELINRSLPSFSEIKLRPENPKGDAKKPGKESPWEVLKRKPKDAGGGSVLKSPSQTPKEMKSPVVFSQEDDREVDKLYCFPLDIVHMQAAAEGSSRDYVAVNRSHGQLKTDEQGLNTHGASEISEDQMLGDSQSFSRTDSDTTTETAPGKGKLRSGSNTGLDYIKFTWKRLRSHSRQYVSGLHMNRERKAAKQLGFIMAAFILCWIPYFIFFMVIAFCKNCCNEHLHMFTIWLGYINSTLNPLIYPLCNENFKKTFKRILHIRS

In the case of `CCn1c2ccccc2c2c(CN3CCCC(c4ccn[nH]4)C3)cccc21` (centres unmarked) [Example 31, 4-((3-(1H-pyrazol-5-yl)piperidin-1-yl)methyl)-9-ethyl-9H-carbazole], the IC50 in assay [1] worked out at 14.8 µM; in assay [2], 18.4 µM.
Consider `CCn1c2ccccc2c2c(CN3CCN(C)CC3)cccc21` [Example 32, 9-ethyl-4-((4-methylpiperazin-1-yl)methyl)-9H-carbazole], for which the IC50 is over 30 µM in assay [1] and 21.9 µM in assay [2].
In the same order, the values of `CCn1c2ccccc2c2cccc(CN3CCN(C)CC3)c21` [Example 33, 9-ethyl-1-((4-methylpiperazin-1-yl)methyl)-9H-carbazole] are 19 µM and 9.64 µM.
In the same order, the values of `CCn1c2ccccc2c2ccc(CN3CCN(C)CC3)cc21` [Example 34, 9-ethyl-2-((4-methylpiperazin-1-yl)methyl)-9H-carbazole] are 35.4 µM and 8.55 µM.
